Data reported in patent publication US20210113518A1, “Composition And Use Thereof Against Drugs Induced Phototoxicity” (AC BIOSCIENCE SA, priority 2018, published 2021).
Values after ≈ are worked out from the molar mass of the structure shown.

Key:
Format in all cases: cell-based
[1] = test system: Balb/c 3T3 fibroblasts; assay: Norfloxacin 3T3 phototoxicity test with or without DHQ treatment (Neutral Red uptake); conditions: for Photoprotective effect against norfloxacin phototoxicity: increasing concentrations in treatment medium, UVA
Procedure: The phototoprotective potential of Dihydroquercetin was assessed using a method based on Norfloxacin phototoxicity test on fibroblasts […]. […] The study was aimed at evaluating the photoprotective potential of one test item, dihydroquercetin, against the deleterious effects of UVA exposure in presence of phototoxic substances such as Norfloxacin or chlorpromazin. Briefly, Balb/c 3T3 fibroblasts were maintained in culture for 48 h for formation of monolayers. Norfloxacin 3T3 phototoxicity test was performed in presence or absence of DHQ treatment in different conditions. After another 24 h incubation period, cell viability was determined by Neutral Red uptake. For each condition, cell viability was expressed as percentage relative to untreated solvent controls. Then the dose-response curves (at the EC50 level) obtained for Norfloxacin with or without DHQ treatment was compared to assess DHQ photoprotective potential.

[2] = test system: human neutrophils; assay: Polymorphonuclear neutrophils oxidative burst, ROS production by chemiluminescence (PMA activation); conditions: neutrophils primed with TNF-α, activation by 100 ng/ml PMA; luminol chemiluminescence; FIG. 5
Procedure: ROS production is measured using a chemiluminescence standard procedure: briefly, one hundred microliters of human neutrophils (4×10^6/mL) were primed with TNF-α at 37° C. for 25 minutes. 100 μL luminol (1 μM final concentration) and HRP (62.5 U/mL final concentration) in HBSS were added, and 150-μL aliquots were transferred to a prewarmed 96-well luminometer plate. Light emission was recorded by a Berthold MicroLumat Plus luminometer (Berthold Technologies, Hartfordshire, United Kingdom) (data output is in relative light units per second)

[3] = test system: NIH-3T3 fibroblasts; assay: Chlorpromazine (CPZ)-induced cell phototoxicity under UVA, protective effect
Source text: Chlorpromazine (CPZ) is a neuroleptic drug widely used in medicine because of its tranquilizing and antipsychotic properties. CPZ often causes side effects including cutaneous photosensitization and ocular damage.

[4] = test system: human neutrophils; assay: Neutrophils degranulation assessed by myeloperoxidase (MPO) release, fMLP stimulation, MPO enzyme immunoassay; conditions: fMLP 45 minutes at 37° C.
Procedure: Neutrophils were stimulated with formyl-methionyl-leucyl-phenylalanine for 45 minutes at 37° C. MPO released from neutrophils were assayed by using an MPO enzyme immunoassay. [table]

**Q.** With `CCn1cc(C(=O)O)c(=O)c2cc(F)c(N3CCNCC3)cc21` [NFX, norfloxacin] as the compound, how does the EC50 ([1]; Mus musculus, BALB/c3T3, light or radiation study, No DHQ treatment, UVA exposure, read-out: NFX EC 50) read?
**A.** The EC50 was 55 µg/mL (≈ 172 µM).

**Q.** For `Nc1ccc(C(=O)O)cc1` [PABA, para-aminobenzoic acid], which “Photoprotective effect against norfloxacin phototoxicity” value [1] is on record?
**A.** The value was “no effect”.

**Q.** What does the source list for `O=C1c2c(O)cc(O)cc2O[C@H](c2ccc(O)c(O)c2)[C@H]1O` [DHQ, Dihydroquercetin]?
**A.** Effect on reactive oxygen species (ROS) production [2]: Inhibitory effect; Protection against phototoxicity induced by chlorpromazine+UVA ([3]; NIH-3T3 fibroblasts, FIG. 4): efficiently protects; Photoprotective effect against norfloxacin phototoxicity [1]: Dose-dependent photoprotective effect

**Q.** With `CN(C)CCCN1c2ccccc2Sc2ccc(Cl)cc21` [CPZ, Chlorpromazine, reference compound] as the compound, how does the IC50 ([3]; Mus musculus, NIH3T3, light or radiation study, control experiment (no treatment), UVA) read?
**A.** Its IC50 is 0.33 µg/mL (≈ 1.03 µM).

**Q.** With `CC(C)=CCC[C@](C)(O)C1CC=C(C)CC1` (stereo partly shown) [Bisabolol] as the compound, how does the MPO release ([4]; Bisabolol 20 μM) read?
**A.** Its MPO release is 810 U/mL.

**Q.** And the MPO release ([4]; Bisabolol 40 μM)?
**A.** Its MPO release is 500 U/mL.

**Q.** And the MPO release ([4]; Bisabolol 100 μM)?
**A.** Its MPO release is 250 U/mL.

**Q.** What about the MPO release ([4]; Bisabolol 200 μM) of the same compound?
**A.** The MPO release was 248 U/mL.
